Measurements reported in paper PMC11602654 (The Journal of General Physiology, 2024).

Tests used:
[1] = molecular target: T1, β3(Q64R+G127T) homomeric GABAA receptor (Homo sapiens, UniProt P28472, G152T/Q89R); assay: two-electrode voltage clamp, concentration-response; format: cell-based
T1 sequence (P28472 26-473 Q89R/G152T): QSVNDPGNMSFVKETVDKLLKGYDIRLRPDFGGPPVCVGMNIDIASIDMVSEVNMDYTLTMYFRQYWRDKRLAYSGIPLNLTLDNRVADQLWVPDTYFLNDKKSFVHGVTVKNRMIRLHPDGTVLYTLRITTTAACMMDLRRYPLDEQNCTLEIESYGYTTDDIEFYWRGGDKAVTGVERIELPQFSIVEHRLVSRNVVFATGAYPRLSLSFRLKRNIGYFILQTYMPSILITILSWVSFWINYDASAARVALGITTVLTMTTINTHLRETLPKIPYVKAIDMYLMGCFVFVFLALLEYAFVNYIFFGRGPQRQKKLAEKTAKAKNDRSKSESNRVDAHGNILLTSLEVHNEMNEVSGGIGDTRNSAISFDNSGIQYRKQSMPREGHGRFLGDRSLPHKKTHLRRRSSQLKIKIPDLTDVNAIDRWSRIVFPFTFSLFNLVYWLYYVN

α1β2γ2L GABAA receptor = α1β2γ2L GABAA receptor (Rattus norvegicus, UniProt P62813+P63138); assay: as above; format: cell-based

EC50 [1] [mM]	EC50 (α1β2γ2L GABAA receptor) [mM]	SMILES
9 ± 0.5	–	NCCc1c[nH]cn1 [histamine]
–	0.033 ± 0.012	O=S(=O)(O)C1CCNCC1 [P4S, piperidine-4-sulfonic acid]
